Test results taken from patent publication US20180153995A1, “USE OF ANTIMICROBIAL POLYMERS FOR RE-SENSITIZATION OF MICROORGANISMS UPON EMERGENCE OF RESISTANCE TO ANTI-MICROBIAL AGENTS” (Technion Research & Development Foundation Limited, priority 2008, published 2018).
Converted amounts (≈) assume the structure as drawn. Read-outs that look alike come from different tables or passages of the source. Numbered stars: 1 amine (or outer) side, 2 acyl side, 3 side chain; on linkers, the order of the positions; unused ones are H or OH. Square brackets hold non-standard residues; d marks the D form. Peptide text beside a SMILES is read from it. * marks the point of attachment. NH(CH2)9CO = O=C(CCCCCCCCCN[*:1])[*:2]; Lauroyl = CCCCCCCCCCCC(=O)*

Columns and labels:
[1] = system: MRSA 15903; assay: microbe, parasite or virus in culture; format: cell-based, Staphylococcus aureus; settings: for MIC, ¼ + MIC OAK: with C12K(KNC10K)3NH2 (SEQ ID NO: 10) at ¼ of its MIC; for MIC, ½ + MIC OAK: with C12K(KNC10K)3NH2 (SEQ ID NO: 10) at ½ of its MIC; for MIC, ⅓ + MIC OAK: with C12K(KNC10K)3NH2 (SEQ ID NO: 10) at ⅓ of its MIC
Experimental: (§1) The fractionary inhibitory (FIC) concentration index for combinations of two antimicrobial agents was calculated as follows: FIC index=FICA+FICB=A/MICA+B/MICB where A and B are the MIC values of agent A and agent B in the combination, MICA and MICB are the MICs of agent A and agent B alone, and FICA and FICB are the FICs of agent A and agent B.
(§2) The FIC indexes were interpreted as follows: less than 0.5 indicates a clear re-sensitizing effect; from 0.5 to 4 indicates a marginal or null re-sensitizing effect; and over 4 indicates antagonism.
Experimental data for FIG. 4 were obtained as follows.

[2] = system: S. aureus ATCC 29213; assay: microbe, parasite or virus in culture
Experimental: In parallel, MIC evolution was compared concomitantly for each new sub-culture, using bacteria harvested from control wells (wells cultured without antimicrobial agent from the previous sub-culture). The relative MIC was calculated for each experiment from the ratio of MIC obtained for subculture “n” to that obtained for first-time exposure.
The relative MIC was determined as the normalized ratio of the MIC obtained for a given subculture to the MIC of the control.
MICs were determined by microdilution susceptibility testing in 96-well plates using inocula of 10^5 bacteria per ml. Cell populations were evaluated by optical density measurements at 600 nm and were calibrated against a set of standards.
In parallel, MIC evolution was compared concomitantly for each new generation, using bacteria harvested from control wells (wells cultured without antimicrobial agent from the previous generation). The relative MIC was calculated for each experiment from the ratio of MIC obtained for subculture “n” to that obtained for first-time exposure. […] MICs were determined by microdilution susceptibility testing in 96-well plates. Cell populations were evaluated by optical density measurements at 600 nm and were calibrated against a set of standards.

[3] = system: MRSA 15918; assay: microbe, parasite or virus in culture; format: cell-based, Staphylococcus aureus; settings: 15918
Experimental: (§3) MICs were determined by microdilution susceptibility testing in 96-well plates (by Nunc) using inocula of 10^5 bacteria per ml. Cell populations were evaluated by optical density measurements at 620 nm and were calibrated against a set of standards. Hundred (100) μl of a bacterial suspension were added to 100 μl of culture medium (control) or to 100 μl of culture medium containing various polymer concentrations in 2-fold serial dilutions. Inhibition of proliferation was determined by optical density measurements at 620 nm after an incubation period of 24 hours at 37° C.
as §1, §2

[4] = system: ATCC 29213; assay: microbe, parasite or virus in culture; format: cell-based, Staphylococcus aureus; settings: ATCC 29213
Experimental: as §3, §1, §2

[5] = system: MRSA 15852; format: cell-based, Staphylococcus aureus; settings: 15852
Experimental: as §1, §2

[6] = system: ATCC 25923; assay: microbe, parasite or virus in culture; format: cell-based, Staphylococcus aureus; settings: ATCC 25923
Experimental: as §3

[7] = system: E. coli G11a1; assay: Antibiotic MIC with or without sub-MIC polymer (Tables 20, 21); format: cell-based, Escherichia coli
Experimental: as §3

[8] = system: E. coli AG100/ks; assay: as above; format: cell-based, Escherichia coli
[9] = system: E. coli AG100; assay: as above; format: cell-based, Escherichia coli
[10] = system: E. coli D21; assay: as above; format: cell-based, Escherichia coli
[11] = system: E. coli 16327; assay: microbe, parasite or virus in culture; settings: 16327
Experimental: as §3
100 μl of a bacterial suspension were added to 100 μl of culture medium (control) or to 100 μl of culture medium containing various antibiotic and C14(9-ene)KKNC12KNH2 (SEQ ID NO: 5) concentrations in 2-fold serial dilutions. Inhibition of proliferation was determined by optical density measurements at 620 nm after an incubation period of 24 hours at 37° C.

CCN1CCN(C(=O)N[C@@H](C(=O)N[C@@H]2C(=O)N3C(C(=O)O)=C(CSc4nnnn4C)CS[C@H]23)c2ccc(O)cc2)C(=O)C1=O [cefoperazone] was tested, and the “MIC, ¼ + MIC OAK” value ([1]; MRSA 15903) was 16 µg/mL, the “MIC, ½ + MIC OAK” value ([1]; MRSA 15903) was 4 µg/mL and the “MIC, ⅓ + MIC OAK” value ([1]; MRSA 15903) was 8 to 16 µg/mL. The MIC ([1]; Staphylococcus aureus, MRSA, 24 h, MRSA 15903, antibiotic alone (Table 22), read-out: MIC, Alone) was 16 µg/mL.
CN[C@H](CC(C)C)C(=O)N[C@H]1C(=O)N[C@@H](CC(N)=O)C(=O)N[C@H]2C(=O)N[C@H]3C(=O)N[C@H](C(=O)N[C@H](C(=O)O)c4cc(O)cc(O)c4-c4cc3ccc4O)[C@H](O)c3ccc(c(Cl)c3)Oc3cc2cc(c3O[C@@H]2O[C@H](CO)[C@@H](O)[C@H](O)[C@H]2O[C@H]2C[C@](C)(N)[C@H](O)[C@H](C)O2)Oc2ccc(cc2Cl)[C@H]1O [vancomycin] was tested, and the “MIC, ¼ + MIC OAK” value ([1]; MRSA 15903) was 1 µg/mL, the “MIC, ½ + MIC OAK” value ([1]; MRSA 15903) was 1 µg/mL and the “MIC, ⅓ + MIC OAK” value ([1]; MRSA 15903) was 1 µg/mL. The MIC ([1]; Staphylococcus aureus, MRSA, 24 h, read-out: MIC, Alone) was 1 µg/mL.
For CCCCCCC=CCCCC(=O)N[C@@H](CCCCN)C(=O)N[C@@H](CCCCN)C(=O)NCCCCCCCCCCCC(=O)N[C@@H](CCCCN)C(N)=O [C12(5-ene)KKNC12KNH2], the “mean polymer's MIC” value ([2]; ATCC 29213) was 4.9 µg/mL, the “effect on relative MIC of now-resistant strain” value ([2]; now-resistant ATCC 29213, polymer alone or oxacillin + sub-MIC polymer) was “decreased the relative MIC” and the MIC [3] was 6.2 µM. The MIC [4] was 6.2 µM, the MIC [5] was 6.2 µM and the MIC [6] was 3.1 µM (≈ 2.42 µg/mL). The MIC [1]; 15903 was 3.1 to 6.2 µM, the MIC of polymer [1]; 15903 was 6.2 µM and the “fractionary inhibitory concentration (FIC) index” value ([1]; MRSA 15903, oxacillin + polymer at optimal concentration 2.1 μM) was 0.35. The “optimal re-sensitization polymer concentration” value ([1]; MRSA 15903, with oxacillin) was 2.1 µM.
In the case of CC1(C)S[C@@H]2[C@H](NC(=O)[C@H](N)c3ccccc3)C(=O)N2[C@H]1C(=O)O [ampicillin], the “Antibiotic MIC, None” value ([7]; antibiotic alone (Table 20)) is reported as 64 µg/mL, the “Antibiotic MIC, None” value ([7]; antibiotic alone (Table 21)) is reported as 64 µg/mL and the “Antibiotic MIC in presence of C12K(NC8K)5NH2 (SEQ ID NO: 3), +¼ MIC” value (from here on “Antibiotic MIC … (SEQ ID NO: 3), +¼ MIC”) ([7]; polymer at ¼ of its MIC) is reported as 64 µg/mL. The “Antibiotic MIC in presence of C12K(NC8K)7NH2 (SEQ ID NO: 4), +¼ MIC” value (“Antibiotic MIC … (SEQ ID NO: 4), +¼ MIC” below) ([7]; polymer at ¼ of its MIC) was 64 µg/mL, the “Antibiotic MIC in presence of C12K(NC8K)5NH2 (SEQ ID NO: 3), +½ MIC” value (shortened to “Antibiotic MIC … (SEQ ID NO: 3), +½ MIC”) ([7]; polymer at ½ of its MIC) was 32 µg/mL and the “Antibiotic MIC in presence of C12K(NC8K)7NH2 (SEQ ID NO: 4), +½ MIC” value (“Antibiotic MIC … (SEQ ID NO: 4), +½ MIC” for short) ([7]; polymer at ½ of its MIC) was 32 µg/mL. The “Antibiotic MIC in presence of C12K(NC8K)5NH2 (SEQ ID NO: 3), +⅓ MIC” value (“Antibiotic MIC … (SEQ ID NO: 3), +⅓ MIC” below) ([7]; polymer at ⅓ of its MIC) was 64 µg/mL, the “Antibiotic MIC in presence of C12K(NC8K)7NH2 (SEQ ID NO: 4), +⅓ MIC” value (shortened to “Antibiotic MIC … (SEQ ID NO: 4), +⅓ MIC”) ([7]; polymer at ⅓ of its MIC) was 64 µg/mL and the “Antibiotic MIC, None” value ([8]; antibiotic alone (Table 20)) was over 512 µg/mL. The “Antibiotic MIC, None” value ([8]; antibiotic alone (Table 21)) was over 512 µg/mL, the “Antibiotic MIC … (SEQ ID NO: 3), +¼ MIC” value ([8]; polymer at ¼ of its MIC) was over 512 µg/mL and the “Antibiotic MIC … (SEQ ID NO: 4), +¼ MIC” value ([8]; polymer at ¼ of its MIC) was over 512 µg/mL. The “Antibiotic MIC … (SEQ ID NO: 3), +½ MIC” value ([8]; polymer at ½ of its MIC) was over 512 µg/mL, the “Antibiotic MIC … (SEQ ID NO: 4), +½ MIC” value ([8]; polymer at ½ of its MIC) was over 512 µg/mL and the “Antibiotic MIC … (SEQ ID NO: 3), +⅓ MIC” value ([8]; polymer at ⅓ of its MIC) was over 512 µg/mL. The “Antibiotic MIC … (SEQ ID NO: 4), +⅓ MIC” value ([8]; polymer at ⅓ of its MIC) was over 512 µg/mL, the “Antibiotic MIC, None” value ([9]; antibiotic alone (Table 20)) was 4 µg/mL and the “Antibiotic MIC, None” value ([9]; antibiotic alone (Table 21)) was 4 µg/mL. The “Antibiotic MIC, None” value ([10]; antibiotic alone (Table 20)) was 64 µg/mL, the “Antibiotic MIC, None” value ([10]; antibiotic alone (Table 21)) was 64 µg/mL and the “Antibiotic MIC … (SEQ ID NO: 3), +¼ MIC” value ([10]; polymer at ¼ of its MIC) was 64 µg/mL. The “Antibiotic MIC … (SEQ ID NO: 4), +¼ MIC” value ([10]; polymer at ¼ of its MIC) was 64 µg/mL, the “Antibiotic MIC … (SEQ ID NO: 3), +½ MIC” value ([10]; polymer at ½ of its MIC) was 32 µg/mL and the “Antibiotic MIC … (SEQ ID NO: 4), +½ MIC” value ([10]; polymer at ½ of its MIC) was 32 µg/mL. For the same compound, the “Antibiotic MIC … (SEQ ID NO: 3), +⅓ MIC” value ([10]; polymer at ⅓ of its MIC) was 64 µg/mL and the “Antibiotic MIC … (SEQ ID NO: 4), +⅓ MIC” value ([10]; polymer at ⅓ of its MIC) was 64 µg/mL.
For CCCCCCCCCCCC(=O)N[C@@H](CCCCN)C(=O)N[C@@H](CCCCN)C(=O)NCCCCCCCCCC(=O)N[C@@H](CCCCN)C(=O)N[C@@H](CCCCN)C(=O)NCCCCCCCCCC(=O)N[C@@H](CCCCN)C(=O)N[C@@H](CCCCN)C(=O)NCCCCCCCCCC(=O)N[C@@H](CCCCN)C(N)=O [C12K(KNC10K)3NH2] (Lauroyl-KK[NH(CH2)9CO]KK[NH(CH2)9CO]KK[NH(CH2)9CO]K-NH2), the MIC of polymer [11] was 3.1 µM and the MIC of polymer [1]; 15903 was 6.25 µM.
